The nature of the series: method code SF-AS, from DOI: 10.1080/09553007914550151, PMID: 312783. Particulars: pH 7.4.
As usually defined, the logD is the decadic logarithm of the distribution of all forms, ionised or not, between an organic phase and buffer at a given pH. A high value points to a more lipophilic compound. As to `COC(=O)c1cnc([N+](=O)[O-])n1C`, the logD stood at 0.51.
The result for `C=Cc1cnc([N+](=O)[O-])n1C` reads 0.64.
The result for `COCc1ccc([N+](=O)[O-])o1` reads 0.89.
`O=[N+]([O-])c1nccn1CCCOc1ccccc1` came in with a logD of 2.38.
As for `O=[N+]([O-])c1cn(CCN2CCOCC2)cn1`, the logD was -0.38.
Then `O=[N+]([O-])c1nccn1CCN1CCOCC1`, with -0.1; and `CC(=O)Cn1ccnc1[N+](=O)[O-]`, with -0.34.
`CCOCCn1ccnc1[N+](=O)[O-]`: the logD is 0.53.
Then `O=[N+]([O-])c1nccn1CCS(=O)(=O)c1ccccc1`, with 0.52.
As for `COCC(O)Cn1cc([N+](=O)[O-])nc1C` (configuration not stated), the logD was -0.36.
The result for `Cn1c(CO)cnc1[N+](=O)[O-]` reads -0.35.
`O=[N+]([O-])c1nccn1CCOc1ccccc1` came in with a logD of 1.89.
As to `CC(C)OCC(O)Cn1ccnc1[N+](=O)[O-]` (configuration not stated), the logD was found to be 0.51.
The compound `CS(=O)(=O)CCn1ccnc1[N+](=O)[O-]` had a logD of -1.3.
On to `Cn1c(C(C)(C)O)cnc1[N+](=O)[O-]`, for which the logD was determined as 0.43.
Then `COC(=O)Cn1ccnc1[N+](=O)[O-]`, with -0.09; and `COCCn1ccnc1[N+](=O)[O-]`, with 0.12.

These data come from the SangsterLogP compilation.
